Measurements published in the NIST ThermoML archive (doi:10.1016/j.jct.2018.12.019).
± gives the expanded uncertainty stated by the source.

Tests used:
[1] = 98 kPa, Liquid; for speed of sound: Frequency=3 MHz, Single path-length method; for mass density: Vibrating tube method
[2] = xn = mol fraction of the nth substance listed; details: 98 kPa, Liquid, x2 = 0; for speed of sound: Frequency=3 MHz, Single path-length method; for mass density: Vibrating tube method
[3] = excess molar enthalpy (molar enthalpy of mixing); xn = mol fraction of the nth substance listed; details: 298.15 K; 98 kPa; Liquid; Calvet calorimetry; x2 = 0

Structure (SMILES)	speed of sound ([1]; 288.15 K) [m/s]	mass density ([1]; 288.15 K) [kg/m3]	speed of sound ([1]; 298.15 K) [m/s]	mass density ([1]; 298.15 K) [kg/m3]	speed of sound ([1]; 308.15 K) [m/s]	mass density ([1]; 308.15 K) [kg/m3]	speed of sound ([1]; 318.15 K) [m/s]	mass density ([1]; 318.15 K) [kg/m3]	speed of sound ([1]; 328.15 K) [m/s]	mass density ([1]; 328.15 K) [kg/m3]	speed of sound ([2]; 288.15 K) [m/s]	mass density ([2]; 288.15 K) [kg/m3]	speed of sound ([2]; 298.15 K) [m/s]	mass density ([2]; 298.15 K) [kg/m3]	speed of sound ([2]; 308.15 K) [m/s]	mass density ([2]; 308.15 K) [kg/m3]	speed of sound ([2]; 318.15 K) [m/s]	mass density ([2]; 318.15 K) [kg/m3]	speed of sound ([2]; 328.15 K) [m/s]	mass density ([2]; 328.15 K) [kg/m3]	other results
CC(C)O [propan-2-ol]	1173.2 ± 1.1	789.18 ± 0.81	1138.4 ± 1.1	780.86 ± 0.81	1103.3 ± 1.1	772.26 ± 0.81	1067.9 ± 1.1	763.3 ± 0.81	1031.9 ± 1.1	753.91 ± 0.81	–	–	–	–	–	–	–	–	–	–	–
CO [methanol]	1135.7 ± 1.1	796.13 ± 0.81	1102.6 ± 1.1	786.75 ± 0.81	1069.8 ± 1.1	777.29 ± 0.81	1037.4 ± 1.1	767.71 ± 0.81	1005.3 ± 1.1	757.97 ± 0.81	–	–	–	–	–	–	–	–	–	–	–
CCCO [propan-1-ol] + Cn1ccnc1	–	–	–	–	–	–	–	–	–	–	1239.5 ± 1	807.5 ± 0.81	1205.2 ± 1	799.53 ± 0.81	1171.1 ± 1	791.44 ± 0.81	1137.3 ± 1	783.18 ± 0.81	1103.8 ± 1	774.7 ± 0.81	excess molar enthalpy [3]: 0 ± 0.000239 kcal/mol
O [water] + Cn1ccnc1	–	–	–	–	–	–	–	–	–	–	–	–	–	–	–	–	–	–	1547.3 ± 1	985.71 ± 0.8	–
CC(C)O [propan-2-ol] + Cn1ccnc1	–	–	–	–	–	–	–	–	–	–	1173.2 ± 1.1	789.18 ± 0.81	1138.4 ± 1.1	780.86 ± 0.81	1103.3 ± 1.1	772.26 ± 0.81	1067.9 ± 1.1	763.3 ± 0.81	1031.9 ± 1.1	753.91 ± 0.81	excess molar enthalpy [3]: 0 ± 0.000239 kcal/mol
CCO [ethanol]	1176.9 ± 1.1	793.68 ± 0.81	1142.7 ± 1.1	785.14 ± 0.81	1108.8 ± 1.1	776.48 ± 0.81	1075.2 ± 1.1	767.68 ± 0.81	1041.9 ± 1.1	758.65 ± 0.81	–	–	–	–	–	–	–	–	–	–	–
CCO [ethanol] + Cn1ccnc1	–	–	–	–	–	–	–	–	–	–	1176.9 ± 1.1	793.68 ± 0.81	1142.7 ± 1.1	785.14 ± 0.81	1108.8 ± 1.1	776.48 ± 0.81	1075.2 ± 1.1	767.68 ± 0.81	1041.9 ± 1.1	758.65 ± 0.81	excess molar enthalpy [3]: 0 ± 0.000239 kcal/mol
Cn1ccnc1 [1-methylimidazole]	1634.1 ± 1.4	1039.36 ± 0.83	1596.5 ± 1.4	1030.52 ± 0.83	1559 ± 1.4	1021.66 ± 0.83	1521.8 ± 1.4	1012.76 ± 0.83	1485 ± 1.4	1003.83 ± 0.83	–	–	–	–	–	–	–	–	–	–	–
CO [methanol] + Cn1ccnc1	–	–	–	–	–	–	–	–	–	–	1135.7 ± 1.1	796.13 ± 0.81	1102.6 ± 1.1	786.75 ± 0.81	1069.8 ± 1.1	777.29 ± 0.81	1037.4 ± 1.1	767.71 ± 0.81	1005.3 ± 1.1	757.97 ± 0.81	–
CCCO [propan-1-ol]	1239.5 ± 1	807.5 ± 0.81	1205.2 ± 1	799.53 ± 0.81	1171.1 ± 1	791.44 ± 0.81	1137.3 ± 1	783.18 ± 0.81	1103.8 ± 1	774.7 ± 0.81	–	–	–	–	–	–	–	–	–	–	–
